Converted amounts (≈) assume the structure as drawn. Like-named read-outs stand apart in the source and are kept apart here.
How the values were obtained:
Experiment in all cases: Minimum inhibitory concentration
Assay type in all cases: cell-based
[1] = tested on: Staphylococcus aureus ATCC 6538p; settings: ATCC6538P
[2] = tested on: Staphylococcus aureus MS353
[3] = tested on: Staphylococcus aureus MS353 C36; settings: MS353C36, read-out: Minimum Inhibitory Concentration
Description: (§1) Minimum Inhibitory Concentration (μg/ml)
*erythromycin resistant strain

[4] = tested on: Staphylococcus aureus 0126
Description: as §1
**erythromycin and oreandomycin resistant strain.

[5] = tested on: Streptococcus pyogenes N.Y.5
[6] = Staphylococcus aureus, 0126, read-out: Minimum Inhibitory Concentration
[7] = Staphylococcus aureus 0126, erythromycin and oreandomycin resistant strain, read-out: Minimum Inhibitory Concentration

Compound | MIC [1] [µg/mL] | MIC [2] [µg/mL] | MIC [3] [µg/mL] | MIC [4, 6] [µg/mL] | MIC [5] [µg/mL] | MIC [4, 7] [µg/mL]
CC[C@H]1OC(=O)C[C@@H](O)[C@H](C)[C@@H](O[C@@H]2O[C@H](C)[C@@H](O[C@H]3C[C@@](C)(O)[C@@H](O)[C@H](C)O3)[C@H](N(C)C)[C@H]2O)[C@@H](CC=O)C[C@@H](C)C(=O)/C=C/C(C)=C/[C@@H]1CO[C@@H]1O[C@H](C)[C@@H](O)[C@@H](OC)[C@H]1OC [tylosin] | 1.6 (≈ 1.75 µM) | 3.1 (≈ 3.38 µM) | 1.6 (≈ 1.75 µM) | 1.6 (≈ 1.75 µM) | 0.4 (≈ 0.437 µM) | –
CC[C@H]1OC(=O)[C@H](C)[C@@H](O[C@H]2C[C@@](C)(OC)[C@@H](O)[C@H](C)O2)[C@H](C)[C@@H](O[C@@H]2O[C@H](C)C[C@H](N(C)C)[C@H]2O)[C@](C)(O)C[C@@H](C)C(=O)[C@H](C)[C@@H](O)[C@]1(C)O [erythromycin, reference compound] | 0.2 (≈ 0.273 µM) | 0.2 (≈ 0.273 µM) | > 100 | > 100 | ≤ 0.05 | –
CCC1OC(=O)C=CC(C)C(OC2OC(C)C(O)C(N(C)C)C2O)C(C)CC(C)C(=O)C=CC(C)=CC1COC1OC(C)C(O)C(OC)C1OC (stereo not drawn) [19-deformyl-2,3-didehydro-3-dehydroxy-4'-demycarosyltylosin] | 0.2 (≈ 0.276 µM) | 0.2 (≈ 0.276 µM) | 0.4 (≈ 0.551 µM) | – | 0.2 (≈ 0.276 µM) | 1.6 (≈ 2.2 µM)
CCC1OC(=O)CC(O)C(C)C(OC2OC(C)C(OC3CC(C)(O)C(O)C(C)O3)C(N(C)C)C2O)C(C)CC(C)C(=O)C=CC(C)=CC1COC1OC(C)C(O)C(OC)C1OC (stereo not drawn) [19-deformyltylosin] | 1.6 (≈ 1.8 µM) | 1.6 (≈ 1.8 µM) | 0.8 (≈ 0.901 µM) | – | 1.6 (≈ 1.8 µM) | –
CCC1CC(C)C(=O)C=CC(C)=CC(COC2OC(C)C(O)C(OC)C2OC)C(CC)OC(=O)CC(O)C(C)C1OC1OC(C)C(O)C(N(C)C)C1O (stereo not drawn) [20-deoxo-4'-demycarosyltylosin] | 0.2 (≈ 0.264 µM) | 0.2 (≈ 0.264 µM) | 0.1 (≈ 0.132 µM) | – | 0.2 (≈ 0.264 µM) | –
CCC1OC(=O)CC(O)C(C)C(OC2OC(C)C(O)C(N(C)C)C2O)C(C)CC(C)C(=O)C=CC(C)=CC1COC1OC(C)C(O)C(OC)C1OC (stereo not drawn) [19-deformyl-4'-demycarosyltylosin] | 0.2 (≈ 0.269 µM) | 0.2 (≈ 0.269 µM) | 0.2 (≈ 0.269 µM) | – | 0.1 (≈ 0.134 µM) | 0.8 (≈ 1.08 µM)
CCC1OC(=O)CC(OC(=O)Cc2ccccc2)C(C)C(OC2OC(C)C(O)C(N(C)C)C2O)C(C)CC(C)C(=O)C=CC(C)=CC1COC1OC(C)C(O)C(OC)C1OC (stereo not drawn) [19-deformyl-4'-demycarosyl-3-phenylacetyltylosin] | 0.2 (≈ 0.232 µM) | 0.2 (≈ 0.232 µM) | 0.1 (≈ 0.116 µM) | 0.4 (≈ 0.464 µM) | ≤ 0.05 | –

From patent US4345069A, “Deformyltylosin derivatives” (Toyo Jozo Kabushiki Kaisha, priority 1979, dated 1982)
